Assays:
Experiment in all cases: relative viability (nuclei count vs DMSO), 5 days (fraction); higher = more cells survive
[1] = compound: C=CC(=O)N1CCC[C@@H](n2nc(-c3ccc(Oc4ccccc4)cc3)c3c(N)ncnc32)C1 [Ibrutinib] + CC(C)C[C@H](NC(=O)[C@H](Cc1ccccc1)NC(=O)c1cnccn1)B(O)O [Bortezomib] (partner 0.002 µM)
In short: (§1)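 Lung cancer cell lines were pin-tool dosed in 1536-well plates on the day after seeding, with either a lone drug or a fixed anchor-drug dose plus five library-drug doses (not always all listed) in √10 steps. Nuclei were counted on 4× images after 5 days. Relative viability is the ratio of treated-well to vehicle-well nuclei counts, with each value a median of duplicate plates.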

[2] = compound: C=CC(=O)N1CCC[C@@H](n2nc(-c3ccc(Oc4ccccc4)cc3)c3c(N)ncnc32)C1 [Ibrutinib] + CS(=O)(=O)N1CCN(Cc2cc3nc(-c4cccc5[nH]ncc45)nc(N4CCOCC4)c3s2)CC1 [Pictilisib] (partner 1 µM)
In short: as §1

[3] = compound: C=CC(=O)Nc1cc(-n2c(=O)ccc3cnc4ccc(-c5ccc(NS(C)(=O)=O)cc5)cc4c32)ccc1C [BMX-IN-1] + Nc1ncn([C@H]2C[C@H](O)[C@@H](CO)O2)c(=O)n1 [Decitabine] (partner 2 µM)
In short: as §1

[4] = compound: C=CCc1cccc(/C=N/NC(=O)CN2CCN(Cc3ccccc3)CC2)c1O [PAC-1] + CS(=O)(=O)N1CCN(Cc2cc3nc(-c4cccc5[nH]ncc45)nc(N4CCOCC4)c3s2)CC1 [Pictilisib] (partner 1 µM)
In short: as §1

| Cell Line | relative viability ([1]; first compound 0.005 µM) | relative viability ([1]; first compound 0.01581 µM) | relative viability ([1]; first compound 0.05 µM) | relative viability ([1]; first compound 0.1581 µM) | relative viability ([1]; first compound 0.5 µM) | relative viability ([2]; first compound 0.005 µM) | relative viability ([2]; first compound 0.01581 µM) | relative viability ([2]; first compound 0.05 µM) | relative viability ([2]; first compound 0.5 µM) | relative viability ([3]; first compound 0.02 µM) | relative viability ([3]; first compound 0.2 µM) | relative viability ([3]; first compound 0.6325 µM) | relative viability ([3]; first compound 2 µM) | relative viability ([4]; first compound 0.02 µM) | relative viability ([4]; first compound 0.06325 µM) | relative viability ([4]; first compound 0.2 µM) | relative viability ([4]; first compound 2 µM) | relative viability ([2]; first compound 0.1581 µM) |
| --- | --- | --- | --- | --- | --- | --- | --- | --- | --- | --- | --- | --- | --- | --- | --- | --- | --- | --- |
| NCI-H2405 | 1.07 | 0.977 | 0.948 | 0.856 | 0.767 | 0.33 | 0.384 | 0.282 | 0.485 | 0.702 | 0.723 | 0.851 | 0.716 | 0.44 | 0.455 | 0.45 | 0.376 |  |
| EBC-1 | 0.693 | 0.524 | 0.555 | 0.668 | 0.486 | 0.31 | 0.436 | 0.378 | 0.321 |  |  |  |  | 0.371 | 0.345 | 0.379 | 0.335 | 0.456 |
| NCI-H1734 | 0.799 | 0.923 | 1.02 | 0.989 | 0.929 | 0.354 | 0.446 | 0.43 | 0.388 | 0.534 | 0.568 | 0.522 | 0.831 | 0.446 | 0.448 | 0.431 | 0.468 | 0.491 |
| NCI-H2087 | 0.755 | 0.741 | 0.851 | 0.844 | 0.889 | 0.686 | 0.878 | 0.973 | 0.862 | 0.29 | 0.343 | 0.239 | 0.325 | 0.852 | 0.901 | 0.782 | 0.683 | 0.339 |
| NCI-H1563 | 0.778 | 0.771 | 0.807 | 0.742 | 0.752 | 0.663 | 0.635 | 0.677 | 0.602 |  |  |  |  | 0.641 | 0.695 | 0.752 | 0.63 | 0.607 |
| SW 900 |  |  |  |  |  |  |  |  |  | 0.564 | 0.51 | 0.461 | 0.539 |  |  |  |  |  |
| A549 |  |  |  |  |  | 0.396 | 0.416 | 0.521 | 0.499 | 0.289 | 0.115 | 0.284 | 0.293 | 0.483 | 0.511 | 0.509 | 0.487 | 0.586 |
| NCI-H1793 |  |  |  |  |  |  | 0.466 | 0.323 | 0.274 | 0.45 | 0.535 | 0.471 | 0.589 | 0.344 | 0.345 | 0.254 | 0.332 | 0.357 |
| EKVX | 0.894 | 0.929 | 0.975 | 0.925 | 0.489 | 0.341 | 0.391 | 0.435 | 0.278 | 0.333 | 0.281 | 0.617 | 0.381 | 0.453 | 0.415 | 0.374 | 0.488 | 0.461 |
| NCI-H1299 | 1.02 | 1 | 0.995 | 1.02 | 1.04 | 0.571 | 0.555 | 0.773 | 0.854 |  |  |  |  | 0.876 | 0.763 | 0.815 | 0.657 | 0.699 |
| LK-2 |  |  |  |  |  |  | 0.472 | 0.532 | 0.488 | 0.262 | 0.326 | 0.269 | 0.335 | 0.612 | 0.607 | 0.642 | 0.502 | 0.494 |
| Calu-6 | 0.992 | 0.959 | 0.934 | 1.11 | 0.932 | 0.854 | 0.843 | 0.949 |  |  |  |  |  | 0.857 | 0.82 | 0.875 | 0.833 | 1.05 |
| NCI-H1703 | 0.374 | 0.308 | 0.332 | 0.409 | 0.231 |  | 0.233 | 0.205 | 0.222 |  |  |  |  | 0.245 | 0.267 | 0.249 | 0.205 | 0.241 |
| IA-LM | 0.846 | 0.781 | 0.926 | 0.989 | 0.863 | 0.203 | 0.231 | 0.312 | 0.22 |  |  |  |  | 0.339 | 0.363 | 0.355 | 0.456 | 0.411 |
| CAL-12T | 0.988 | 0.915 | 0.836 | 0.884 | 0.693 | 0.232 | 0.448 | 0.394 | 0.495 |  |  |  |  | 0.202 | 0.44 | 0.482 | 0.568 | 0.355 |
| NCI-H1944 |  |  |  |  |  | 0.305 | 0.334 | 0.308 | 0.316 | 0.459 | 0.402 | 0.481 | 0.426 | 0.3 | 0.345 | 0.323 | 0.33 | 0.317 |
| NCI-H1395 |  |  |  |  |  | 0.611 | 0.555 | 0.538 | 0.655 | 0.781 | 0.695 | 0.677 | 0.769 | 0.603 | 0.677 | 0.61 | 0.602 | 0.562 |
| NCI-H2228 | 0.996 | 0.989 | 1.13 | 1.37 | 0.92 | 0.316 | 0.486 | 0.276 | 0.386 |  |  |  |  | 0.42 | 0.507 | 0.397 | 0.362 | 0.433 |
| NCI-H2342 |  |  |  |  |  |  |  |  |  | 0.698 | 0.751 | 0.748 | 0.742 |  |  |  |  |  |
| NCI-H2170 |  |  |  |  |  | 0.234 | 0.312 | 0.243 | 0.169 | 0.454 | 0.499 | 0.469 | 0.495 | 0.28 | 0.315 | 0.362 | 0.27 | 0.261 |
| NCI-H522 |  |  |  |  |  |  |  |  |  | 0.692 | 0.633 | 0.725 | 0.624 |  |  |  |  |  |
| NCI-H1648 |  |  |  |  |  |  |  |  |  | 0.511 | 0.467 | 0.616 | 0.506 |  |  |  |  |  |
| NCI-H358 |  |  |  |  |  | 0.28 | 0.372 | 0.291 | 0.264 | 0.181 | 0.2 | 0.239 | 0.214 | 0.355 | 0.396 | 0.376 | 0.367 | 0.315 |

From the supplement of paper PMC10307832
